# Reference: patent US20230090982A1, “DRUG FOR TREATING C[…] […] […] C” (priority 2020, published 2023)
# Like-named read-outs stand apart in the source and are kept apart here.
# Assays:
# [1] = test system: Primary human gingival fibroblasts
# Protocol: (§1) The radioactivity of the samples was measured on a Tri-Carb 2800 TR (3-counter (PerkinElmer, USA) in an ULTIMA GOLD LLT scintillator (Perkin Elmer, USA). An aliquot of the sample (0.1 mL) was thoroughly mixed with the scintillator (0.9 mL) and the radioactivity was measured within no more than 2 h after the mixture was prepared.
# (§2) Cells were cultured on the surface of 48-well polystyrene plates.
# (§3) Primary human gingival fibroblasts and cervical adenocarcinoma HeLa cells were used as cell cultures. Cells were cultured in IMDM culture medium supplemented with 10% fetal bovine serum and an antibiotic (penicillin and streptomycin) in an atmosphere of 6% CO2, at 37° C.
# (§4) During the experiment, the cells were placed into 48-well polystyrene plates with a well diameter of 1 cm, in the amount of 12 thousand cells per well, in triplicate for each type of sample (in 0.5 ml of culture medium). […] The cell suspension was sedimented by centrifugation at 800 g for 10 min, and aliquots were taken from the trypsin supernatant. The cell precipitation was resuspended in 220 μl of saline and 2 aliquots of 100 μl were taken to measure the radioactivity of the samples.
# [2] = test system: HeLa cervical adenocarcinoma cells
# Protocol: as §1, §2, §3, §4
# [3] = in water, alcohol; cited from earlier work
# [4] = 0.074% formaldehyde diluted in culture medium, compared with 0.11% formaldehyde solution
# [5] = 0.074% formaldehyde in saline, compared with incubation in 0.11% formaldehyde solution
# [6] = incubation in culture medium, added formaldehyde 0.00056%
# [7] = incubation in culture medium, added formaldehyde 0.0028%
# [8] = incubation in culture medium, added formaldehyde 0.014%
# [9] = incubation in culture medium, added formaldehyde 0.074%
# [10] = incubation in culture medium, added formaldehyde 0.11%
# [11] = incubation in saline, added formaldehyde 0.00056%
# [12] = incubation in saline, added formaldehyde 0.0028%
# [13] = incubation in saline, added formaldehyde 0.014%
# [14] = incubation in saline, added formaldehyde 0.074%
# [15] = incubation in saline, added formaldehyde 0.11%
smiles,measurement,setting,value
C=O [formaldehyde],activation of the production of endogenous formaldehyde,[1]; [4],20.6%
same,activation of the production of endogenous formaldehyde,[1]; [5],18.4%
same,"Formaldehyde accumulation, Cells, % of what added",[1]; [6],0.25 ± 0.02 % of what added
same,"Formaldehyde accumulation, Trypsin eluate, % of what added",[1]; [6],0.23 ± 0.03 % of what added
same,"Formaldehyde accumulation, Cells, % of what added",[1]; [7],0.55 ± 0.07 % of what added
same,"Formaldehyde accumulation, Trypsin eluate, % of what added",[1]; [7],0.56 ± 0.16 % of what added
same,"Formaldehyde accumulation, Cells, % of what added",[1]; [8],1.25 ± 0.13 % of what added
same,"Formaldehyde accumulation, Trypsin eluate, % of what added",[1]; [8],1.36 ± 0.15 % of what added
same,"Formaldehyde accumulation, Cells, % of what added",[1]; [9],1.7 ± 0.11 % of what added
same,"Formaldehyde accumulation, Trypsin eluate, % of what added",[1]; [9],2.33 ± 0.34 % of what added
same,"Formaldehyde accumulation, Cells, % of what added",[1]; [10],1.35 ± 0.09 % of what added
same,"Formaldehyde accumulation, Trypsin eluate, % of what added",[1]; [10],1.77 ± 0.16 % of what added
same,"Formaldehyde accumulation, Cells, % of what added",[1]; [11],0.53 ± 0.04 % of what added
same,"Formaldehyde accumulation, Trypsin eluate, % of what added",[1]; [11],0.45 ± 0.03 % of what added
same,"Formaldehyde accumulation, Cells, % of what added",[1]; [12],1.26 ± 0.11 % of what added
same,"Formaldehyde accumulation, Trypsin eluate, % of what added",[1]; [12],1.73 ± 0.23 % of what added
same,"Formaldehyde accumulation, Cells, % of what added",[1]; [13],3.11 ± 0.27 % of what added
same,"Formaldehyde accumulation, Trypsin eluate, % of what added",[1]; [13],3.41 ± 0.44 % of what added
same,"Formaldehyde accumulation, Cells, % of what added",[1]; [14],2.12 ± 0.33 % of what added
same,"Formaldehyde accumulation, Trypsin eluate, % of what added",[1]; [14],5.16 ± 0.85 % of what added
same,"Formaldehyde accumulation, Cells, % of what added",[1]; [15],1.73 ± 0.23 % of what added
same,"Formaldehyde accumulation, Trypsin eluate, % of what added",[1]; [15],3.71 ± 0.45 % of what added
same,activation of the production of endogenous formaldehyde,[2]; [4],30.2%
same,activation of the production of endogenous formaldehyde,[2]; [5],32%
same,"Formaldehyde accumulation, Cells, % of what added",[2]; [6],0.28 ± 0.03 % of what added
same,"Formaldehyde accumulation, Trypsin eluate, % of what added",[2]; [6],0.20 ± 0.02 % of what added
same,"Formaldehyde accumulation, Cells, % of what added",[2]; [7],0.64 ± 0.13 % of what added
same,"Formaldehyde accumulation, Trypsin eluate, % of what added",[2]; [7],0.45 ± 0.06 % of what added
same,"Formaldehyde accumulation, Cells, % of what added",[2]; [8],1.52 ± 0.09 % of what added
same,"Formaldehyde accumulation, Trypsin eluate, % of what added",[2]; [8],1.92 ± 0.11 % of what added
same,"Formaldehyde accumulation, Cells, % of what added",[2]; [9],2.75 ± 0.18 % of what added
same,"Formaldehyde accumulation, Trypsin eluate, % of what added",[2]; [9],2.54 ± 0.14 % of what added
same,"Formaldehyde accumulation, Cells, % of what added",[2]; [10],1.92 ± 0.16 % of what added
same,"Formaldehyde accumulation, Trypsin eluate, % of what added",[2]; [10],1.83 ± 0.12 % of what added
same,"Formaldehyde accumulation, Cells, % of what added",[2]; [11],0.62 ± 0.04 % of what added
same,"Formaldehyde accumulation, Trypsin eluate, % of what added",[2]; [11],0.57 ± 0.04 % of what added
same,"Formaldehyde accumulation, Cells, % of what added",[2]; [12],1.34 ± 0.05 % of what added
same,"Formaldehyde accumulation, Trypsin eluate, % of what added",[2]; [12],2.14 ± 0.08 % of what added
same,"Formaldehyde accumulation, Cells, % of what added",[2]; [13],2.65 ± 0.11 % of what added
same,"Formaldehyde accumulation, Trypsin eluate, % of what added",[2]; [13],3.44 ± 0.19 % of what added
same,"Formaldehyde accumulation, Cells, % of what added",[2]; [14],2.75 ± 0.18 % of what added
same,"Formaldehyde accumulation, Trypsin eluate, % of what added",[2]; [14],3.32 ± 0.27 % of what added
same,"Formaldehyde accumulation, Cells, % of what added",[2]; [15],1.85 ± 0.25 % of what added
same,"Formaldehyde accumulation, Trypsin eluate, % of what added",[2]; [15],2.41 ± 0.11 % of what added
same,solubility,[3],"well dissolve in water, alcohol"
